According to the SangsterLogP compilation:

assay: method code SF-AS, from PMID: 2985094; conditions: pH 7.4

SMILES | logD
COCn1cnc2nc(=O)n(C)c(N)c21 | -2.41
Cn1c(=O)[nH]c2c(ncn2CCCC(=O)c2ccc(F)cc2)c1=N | 0.44
CCSCCn1cnc2c(=N)n(C)c(=O)[nH]c21 | 0
CCOCCn1cnc2c(N)n(C)c(=O)nc21 | -0.4
Cn1c(=O)[nH]c2ncn(CCc3ccc(Br)cc3)c2c1=N | 1.25
COCCn1cnc2c(N)n(C)c(=O)nc21 | -0.96
CCOC(=O)CCn1cnc2c(=N)n(C)c(=O)[nH]c21 | -0.45
COCCn1cnc2nc(=O)n(C)c(N)c21 | -1.49
C=CCn1cnc2c(=N)n(C)c(=O)[nH]c21 | -0.57
C=COCCn1cnc2c(=N)n(C)c(=O)[nH]c21 | -0.24
Cn1c(N)c2ncn(Cc3ccccc3)c2nc1=O | 0.65
Cn1c(=O)[nH]c2ncn(CCCC(=O)c3ccc(F)cc3)c2c1=N | -1.04
Cn1c(N)c2c(ncn2Cc2ccccc2)nc1=O | 0.07

Now from value to compound:

logD | SMILES
-0.13 | CCSCCn1cnc2[nH]c(=O)n(C)c(=N)c21
-0.78 | C=COCCn1cnc2[nH]c(=O)n(C)c(=N)c21
-1.52 | COCCOCn1cnc2c(=N)n(C)c(=O)[nH]c21
-2.27 | Cn1c(=O)[nH]c2ncn(C)c2c1=N
-1.22 | COCn1cnc2c(=N)n(C)c(=O)[nH]c21
-1.2 | CC(=O)OCCn1cnc2[nH]c(=O)n(C)c(=N)c21
-1.1 | CCOCCn1cnc2[nH]c(=O)n(C)c(=N)c21
-2.41 | COCn1cnc2[nH]c(=O)n(C)c(=N)c21
